System: Venturia inaequalis
Assay: Apple tree scab field trial, preventive spray programme
Type: in vivo
Settings: for % of leaves attacked: apple tree Rome Beauty
From the text: Apple Tree—Venturia inaequalis
The following fungicides are compared: • Pyrimethanil at the dose of 20 g/hl and mixtures. • fosetyl-Al+pyrimethanil at the doses of 50+20 and 100+20 g/hl applied in a plant protection mixture volume of 1 200 l/ha.
The products are applied to an apple tree (Rome Beauty variety) which is sensitive to Venturia inaequalis.
The various products to be studied are sprayed every 7, 10 or 13 days (9, 7 and 6 applications in total respectively) in a program of treatment starting on 28 Mar. 2001.
Scores are awarded for the disease (% foliar surface area destroyed) on 14 May and 11 Jun. 2001. The results are expressed as % of leaves attacked.

SMILES	% of leaves attacked (dose (20), sprayed every 7 days (9 applications), scored 11 June 2001) [%]	% of leaves attacked (dose (20), sprayed every 7 days (9 applications), scored 14 May 2001) [%]	% of leaves attacked (dose (200), sprayed every 10 days (7 applications), scored 11 June 2001) [%]	% of leaves attacked (dose (200), sprayed every 10 days (7 applications), scored 14 May 2001) [%]	% of leaves attacked (dose (200), sprayed every 13 days (6 applications), scored 11 June 2001) [%]	% of leaves attacked (dose (200), sprayed every 13 days (6 applications), scored 14 May 2001) [%]	persistence of the action of pyrimethanil (addition of fosetyl-Al to pyrimethanil, applications every 10 to 13 days compared with weekly applications)
Cc1cc(C)nc(Nc2ccccc2)n1 [Pyrimethanil, pyrimethanil]	27.7	14.7	33	16.2	32	16.3	
CCO[PH](=O)O [fosetyl-AI, monoethyl ester-phosphonate-aluminum]							improve the persistence of the action of pyrimethanil

Reference: patent US20050019420A1, “Fungicide composition comprising pyrimethanil and at least a phosphorous acid derivative and use thereof for fighting against plant diseases” (priority 2001, published 2005)
